From ChEMBL document CHEMBL4715722, “Discovery and preliminary structure-activity relationship studies on tecomaquinone I and tectol as novel farnesyltransferase and plasmodial inhibitors” (Bioorg Med Chem, 2016)
Each block holds one molecule with its values, some of them ahead of it.

What was measured:
[1] = Inhibition of partially purified human FTase using dan-syl-GCVLS peptide as substrate measured for 15 mins by fluorescence based assay
[2] = Inhibition of Trypanosoma brucei FTase
[3] = system: Plasmodium falciparum; assay: Antiplasmodial activity against chloroquine-resistant Plasmodium falciparum FcB1 infected in erythrocyte incubated for 48 hrs by [3H]-hypoxanthine incorporation assay; type: functional, organism-based
[4] = Cytotoxicity against human tumor cell line; type: cell-based
[5] = Inhibition of bovine brain FTase using 3H-farnesyl diphosphate as substrate incubated for 30 mins by beta-plate counting method; parameters: species or system Bos taurus
[6] = Inhibition of recombinant human FTase

Compound: CC(C)=CCC/C(C)=C/CCc1ccc2c(c1)C(=O)c1ccccc1C2=O
IC50 [1]: 1400 nM | IC50 ([2]; read-out: IC50): 1700 nM | IC50 [3]: > 28 µM | Activity [4]: Non-Toxic

Compound: CC1(C)C=Cc2c(-c3c4c(c5ccccc5c3O)OC(C)(C)C=C4)c(O)c3ccccc3c2O1 [tectol]
IC50 [1]: 2090 nM | IC50 ([2]; read-out: IC50): 1730 nM | IC50 [3]: 3.44 µM | Activity [4]: Non-Toxic

Compound: CC(C)=CCC/C(C)=C/CCC1(C)C=Cc2c(-c3c4c(c5ccccc5c3O)OC(C)(CC/C=C(\C)CCC=C(C)C)C=C4)c(O)c3ccccc3c2O1 (stereo unspecified)
IC50 [1]: 1800 nM | IC50 ([2]; read-out: IC50): 8700 nM | IC50 [3]: 7.05 µM | Activity [4]: Non-Toxic

Compound: CC(C)=CCCC1(C)C=Cc2c(-c3c4c(c5ccccc5c3O)OC(C)(CCC=C(C)C)C=C4)c(O)c3ccccc3c2O1 (stereo unspecified)
IC50 [1]: 4400 nM | IC50 ([2]; read-out: IC50): 6100 nM | IC50 [3]: 10.6 µM | Activity [4]: Non-Toxic

IC50 [5]: 100 nM
Compound: CCCCCCCC(=O)O[C@@H]1[C@@H](O)C2(CCCC(OC(C)=O)C(C)C/C=C/c3ccccc3)OC(C(=O)O)C(O)(C(=O)O)C1(C(=O)O)O2 (stereo partly specified)

Compound: CC(C)=CCC/C(C)=C/CCC1(C)C=Cc2c3c(c4ccccc4c2O1)OC(C)(CC/C=C(\C)CCC=C(C)C)C=C3 (stereo unspecified)
IC50 [1]: 1700 nM | IC50 ([2]; read-out: IC50): 2600 nM | IC50 [3]: > 18 µM | Activity [4]: Non-Toxic

Compound: CC(C)=CCC/C(C)=C/CC/C(C)=C/C1Oc2c(c3c(c4ccccc24)OC(C)(CC/C=C(\C)CCC=C(C)C)C=C3)C2=C1C(=O)c1ccccc1C2=O (stereo unspecified)
IC50 [1]: 9980 nM | IC50 [2]: Not Active | IC50 [3]: > 14 µM | Activity [4]: Non-Toxic

IC50 [6]: 14 nM
Compound: O=C(O)C/C(C(=O)O)=C(/CCCCCCCCCCCCCCCCOS(=O)(=O)O)C(=O)O

IC50 [5]: 150 nM
Compound: CC(=O)OC(CCCC12OC(C(=O)O)C(O)(C(=O)O)C(C(=O)O)(O1)[C@H](OC(=O)CC/C=C/C(C)CCCc1ccccc1)[C@H]2O)C(C)Cc1ccccc1 (stereo partly specified)

IC50 [5]: 100 nM
Compound: CCCCCCCCCC(=O)O[C@@H]1[C@@H](O)C2(CCCC(OC(C)=O)C(C)C/C=C/c3ccccc3)OC(C(=O)O)C(O)(C(=O)O)C1(C(=O)O)O2 (stereo partly specified)

Compound: CC(C)=CCCc1ccc2c(c1)C(=O)c1ccccc1C2=O
IC50 [1]: 1500 nM | IC50 ([2]; read-out: IC50): 1400 nM | IC50 [3]: > 34 µM | Activity [4]: Non-Toxic

Compound: CCC(CC(C)C(=O)O)C(=O)CC/C(C)=C/C(C)C/C(C)=C/C(C)C(O)C(C)CCC(CCCC/C=C/C(C)CCC(C)OC(=O)CC(CC(=O)O)C(=O)O)OC(=O)CC(CC(=O)O)C(=O)O (stereo unspecified)
IC50 [6]: 50 nM

Compound: CCC(CC(C)C(=O)O)C(=O)CC/C1=C/C(C)C/C(C)=C/C(C)C(O)C(C)CCC(CCCC/C=C/C(C)CCC(C)OC(=O)CC(CC(=O)O)C(=O)O)OC(=O)CC(C(=O)O)CC(=O)OC1 (stereo unspecified) [ACTINOPLANIC ACID A]
IC50 [6]: 230 nM

Compound: CC(C)=CC1Oc2c(c3c(c4ccccc24)OC(C)(C)C=C3)C2=C1C(=O)c1ccccc1C2=O (stereo unspecified) [TECOMAQUINONE]
IC50 [1]: 65 nM | IC50 ([2]; read-out: IC50): 112 nM | IC50 [3]: > 22 µM | Activity [4]: Non-Toxic

Compound: CC(C)=CCC/C(C)=C/C1Oc2c(c3c(c4ccccc24)OC(C)(CCC=C(C)C)C=C3)C2=C1C(=O)c1ccccc1C2=O (stereo unspecified)
IC50 [1]: 1100 nM | IC50 ([2]; read-out: IC50): 2700 nM | IC50 [3]: > 17 µM | Activity [4]: Non-Toxic

Compound: CC(C)=CCCC1(C)C=Cc2c3c(c4ccccc4c2O1)OC(C)(CCC=C(C)C)C=C3 (stereo unspecified)
IC50 [1]: 4400 nM | IC50 ([2]; read-out: IC50): 7900 nM | IC50 [3]: > 23 µM | Activity [4]: Non-Toxic
